Data: the supplement of paper PMC10307832

How the values were obtained:
Assay in all cases: relative viability (nuclei count vs DMSO), 5 days (fraction); higher = more cells survive
[1] = system: ABC-1
Method in brief: (§1)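 Relative viability is defined as nuclei in treated wells over nuclei in vehicle wells. Duplicate plates were run and medians reported. Lung cancer cell lines in 1536-well plates were dosed by pin tool one day after seeding, with one drug or with a fixed anchor-drug dose plus five library-drug doses (not always all listed) in √10 steps, and nuclei were counted after 5 days.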

[2] = system: CAL-12T
Method in brief: as §1

[3] = system: HCC-366
Method in brief: as §1

[4] = system: HCC-78
Method in brief: as §1

[5] = system: LC-2-ad
Method in brief: as §1

[6] = system: LOU-NH91
Method in brief: as §1

[7] = system: LU99A
Method in brief: as §1

[8] = system: NCI-H1395
Method in brief: as §1

[9] = system: NCI-H1651
Method in brief: as §1

[10] = system: NCI-H1734
Method in brief: as §1

[11] = system: NCI-H1755
Method in brief: as §1

[12] = system: NCI-H1793
Method in brief: as §1

[13] = system: NCI-H1944
Method in brief: as §1

[14] = system: NCI-H2087
Method in brief: as §1

[15] = system: NCI-H2170
Method in brief: as §1

[16] = system: NCI-H2228
Method in brief: as §1

[17] = system: NCI-H2405
Method in brief: as §1

[18] = system: NCI-H3122
Method in brief: as §1

[19] = system: NCI-H460
Method in brief: as §1

[20] = system: PC-3 [JPC-3]
Method in brief: as §1

[21] = system: RERF-LC-KJ
Method in brief: as §1

[22] = system: UMC-11
Method in brief: as §1

`Oc1nc(-c2ccc(C(F)(F)F)cc2)nc2c1CSCC2` [XAV939] + CS(=O)(=O)CCNCc1ccc(-c2ccc3ncnc(Nc4ccc(OCc5cccc(F)c5)c(Cl)c4)c3c2)o1 [Lapatinib] (partner 2 µM) showed a relative viability ([1]; first compound 0.08 µM) of 1.34, a relative viability ([1]; first compound 0.253 µM) of 1.08 and a relative viability ([1]; first compound 0.8 µM) of 1.26. For the same molecule, the relative viability ([1]; first compound 2.53 µM) was 0.657, the relative viability ([2]; first compound 0.08 µM) was 0.729 and the relative viability ([2]; first compound 0.253 µM) was 0.664. For the same molecule, the relative viability ([2]; first compound 0.8 µM) was 0.525, the relative viability ([2]; first compound 2.53 µM) was 0.426 and the relative viability ([3]; first compound 0.08 µM) was 1.23. The relative viability ([3]; first compound 0.253 µM) was 0.861, the relative viability ([3]; first compound 0.8 µM) was 1.01 and the relative viability ([3]; first compound 2.53 µM) was 0.96. For the same molecule, the relative viability ([4]; first compound 0.08 µM) was 0.868, the relative viability ([4]; first compound 0.253 µM) was 0.508 and the relative viability ([4]; first compound 0.8 µM) was 0.326. For the same molecule, the relative viability ([4]; first compound 2.53 µM) was 0.457, the relative viability ([5]; first compound 0.08 µM) was 0.886 and the relative viability ([5]; first compound 0.253 µM) was 0.749. The relative viability ([5]; first compound 0.8 µM) was 0.954, the relative viability ([5]; first compound 2.53 µM) was 0.862 and the relative viability ([6]; first compound 0.08 µM) was 0.73. It also gave a relative viability ([6]; first compound 0.253 µM) of 0.695, a relative viability ([6]; first compound 0.8 µM) of 0.696 and a relative viability ([6]; first compound 2.53 µM) of 0.628. The relative viability ([7]; first compound 0.08 µM) was 0.964, the relative viability ([7]; first compound 0.253 µM) was 0.851 and the relative viability ([7]; first compound 0.8 µM) was 0.995. It also gave a relative viability ([7]; first compound 2.53 µM) of 0.939, a relative viability ([8]; first compound 0.08 µM) of 0.976 and a relative viability ([8]; first compound 0.253 µM) of 0.919. It also gave a relative viability ([8]; first compound 0.8 µM) of 0.985, a relative viability ([8]; first compound 2.53 µM) of 1.01 and a relative viability ([9]; first compound 0.08 µM) of 0.822. For the same molecule, the relative viability ([9]; first compound 0.253 µM) was 0.758, the relative viability ([9]; first compound 0.8 µM) was 0.904 and the relative viability ([9]; first compound 2.53 µM) was 0.857. The relative viability ([10]; first compound 0.08 µM) was 1.34, the relative viability ([10]; first compound 0.253 µM) was 0.9 and the relative viability ([10]; first compound 0.8 µM) was 0.814. For the same molecule, the relative viability ([10]; first compound 2.53 µM) was 0.986, the relative viability ([11]; first compound 0.08 µM) was 0.92 and the relative viability ([11]; first compound 0.253 µM) was 0.87. It also gave a relative viability ([11]; first compound 0.8 µM) of 0.896, a relative viability ([11]; first compound 2.53 µM) of 0.955 and a relative viability ([12]; first compound 0.08 µM) of 0.892. It also gave a relative viability ([12]; first compound 0.253 µM) of 0.602, a relative viability ([12]; first compound 0.8 µM) of 0.714 and a relative viability ([12]; first compound 2.53 µM) of 0.877. For the same molecule, the relative viability ([13]; first compound 0.08 µM) was 1.16, the relative viability ([13]; first compound 0.253 µM) was 0.865 and the relative viability ([13]; first compound 0.8 µM) was 0.834. For the same molecule, the relative viability ([13]; first compound 2.53 µM) was 0.679, the relative viability ([14]; first compound 0.08 µM) was 1.12 and the relative viability ([14]; first compound 0.253 µM) was 1.06. For the same molecule, the relative viability ([14]; first compound 0.8 µM) was 1.08, the relative viability ([14]; first compound 2.53 µM) was 0.89 and the relative viability ([15]; first compound 0.08 µM) was 0.259. For the same molecule, the relative viability ([15]; first compound 0.253 µM) was 0.263, the relative viability ([15]; first compound 0.8 µM) was 0.267 and the relative viability ([15]; first compound 2.53 µM) was 0.261. For the same molecule, the relative viability ([16]; first compound 0.08 µM) was 1.03, the relative viability ([16]; first compound 0.253 µM) was 0.922 and the relative viability ([16]; first compound 0.8 µM) was 0.848. For the same molecule, the relative viability ([16]; first compound 2.53 µM) was 0.928, the relative viability ([17]; first compound 0.08 µM) was 1.25 and the relative viability ([17]; first compound 0.253 µM) was 1.02. The relative viability ([17]; first compound 0.8 µM) was 0.972, the relative viability ([17]; first compound 2.53 µM) was 1.1 and the relative viability ([18]; first compound 0.08 µM) was 1.01. It also gave a relative viability ([18]; first compound 0.253 µM) of 0.95, a relative viability ([18]; first compound 0.8 µM) of 1.01 and a relative viability ([18]; first compound 2.53 µM) of 1.01. The relative viability ([19]; first compound 0.08 µM) was 1.38, the relative viability ([19]; first compound 0.253 µM) was 0.723 and the relative viability ([19]; first compound 0.8 µM) was 0.91. The relative viability ([19]; first compound 2.53 µM) was 0.937, the relative viability ([20]; first compound 0.08 µM) was 0.454 and the relative viability ([20]; first compound 0.253 µM) was 0.417. For the same molecule, the relative viability ([20]; first compound 0.8 µM) was 0.435, the relative viability ([20]; first compound 2.53 µM) was 0.443 and the relative viability ([21]; first compound 0.08 µM) was 0.833. The relative viability ([21]; first compound 0.253 µM) was 0.702, the relative viability ([21]; first compound 0.8 µM) was 0.672 and the relative viability ([21]; first compound 2.53 µM) was 0.609. The relative viability ([22]; first compound 0.08 µM) was 1.15, the relative viability ([22]; first compound 0.253 µM) was 0.742 and the relative viability ([22]; first compound 0.8 µM) was 0.97. The relative viability ([22]; first compound 2.53 µM) was 0.921.
For `Oc1nc(-c2ccc(C(F)(F)F)cc2)nc2c1CSCC2` [XAV939] + C[C@]1(O)C[C@@H](c2nc(-c3ccc4ccc(-c5ccccc5)nc4c3)c3c(N)nccn32)C1 [Linsitinib] (partner 1 µM), the relative viability ([1]; first compound 0.08 µM) was 0.915, the relative viability ([1]; first compound 0.253 µM) was 0.733 and the relative viability ([1]; first compound 0.8 µM) was 0.809. It also gave a relative viability ([1]; first compound 2.53 µM) of 0.315, a relative viability ([2]; first compound 0.08 µM) of 0.87 and a relative viability ([2]; first compound 0.253 µM) of 0.809. It also gave a relative viability ([2]; first compound 0.8 µM) of 0.667, a relative viability ([2]; first compound 2.53 µM) of 0.667 and a relative viability ([3]; first compound 0.08 µM) of 0.626. It also gave a relative viability ([3]; first compound 0.253 µM) of 0.5, a relative viability ([3]; first compound 0.8 µM) of 0.605 and a relative viability ([3]; first compound 2.53 µM) of 0.596. For the same molecule, the relative viability ([4]; first compound 0.08 µM) was 0.59, the relative viability ([4]; first compound 0.253 µM) was 0.448 and the relative viability ([4]; first compound 0.8 µM) was 0.616. For the same molecule, the relative viability ([4]; first compound 2.53 µM) was 0.443, the relative viability ([5]; first compound 0.08 µM) was 0.873 and the relative viability ([5]; first compound 0.253 µM) was 0.797. For the same molecule, the relative viability ([5]; first compound 0.8 µM) was 0.819, the relative viability ([5]; first compound 2.53 µM) was 0.73 and the relative viability ([6]; first compound 0.08 µM) was 0.903. It also gave a relative viability ([6]; first compound 0.253 µM) of 0.842, a relative viability ([6]; first compound 0.8 µM) of 0.996 and a relative viability ([6]; first compound 2.53 µM) of 0.911. For the same molecule, the relative viability ([7]; first compound 0.08 µM) was 0.556, the relative viability ([7]; first compound 0.253 µM) was 0.446 and the relative viability ([7]; first compound 0.8 µM) was 0.505. The relative viability ([7]; first compound 2.53 µM) was 0.44, the relative viability ([8]; first compound 0.08 µM) was 1.09 and the relative viability ([8]; first compound 0.253 µM) was 1.04. It also gave a relative viability ([8]; first compound 0.8 µM) of 1.11, a relative viability ([8]; first compound 2.53 µM) of 0.974 and a relative viability ([9]; first compound 0.08 µM) of 1.01. For the same molecule, the relative viability ([9]; first compound 0.253 µM) was 0.799, the relative viability ([9]; first compound 0.8 µM) was 0.915 and the relative viability ([9]; first compound 2.53 µM) was 0.875. The relative viability ([10]; first compound 0.08 µM) was 0.841, the relative viability ([10]; first compound 0.253 µM) was 0.853 and the relative viability ([10]; first compound 0.8 µM) was 0.961. For the same molecule, the relative viability ([10]; first compound 2.53 µM) was 0.709, the relative viability ([11]; first compound 0.08 µM) was 0.975 and the relative viability ([11]; first compound 0.253 µM) was 0.865. The relative viability ([11]; first compound 0.8 µM) was 0.969, the relative viability ([11]; first compound 2.53 µM) was 0.921 and the relative viability ([12]; first compound 0.08 µM) was 0.964. It also gave a relative viability ([12]; first compound 0.253 µM) of 0.709, a relative viability ([12]; first compound 0.8 µM) of 0.774 and a relative viability ([12]; first compound 2.53 µM) of 0.719. The relative viability ([13]; first compound 0.08 µM) was 1.22, the relative viability ([13]; first compound 0.253 µM) was 1.12 and the relative viability ([13]; first compound 0.8 µM) was 1.24. For the same molecule, the relative viability ([13]; first compound 2.53 µM) was 1.26, the relative viability ([14]; first compound 0.08 µM) was 1.14 and the relative viability ([14]; first compound 0.253 µM) was 0.936. It also gave a relative viability ([14]; first compound 0.8 µM) of 0.939, a relative viability ([14]; first compound 2.53 µM) of 0.672 and a relative viability ([16]; first compound 0.08 µM) of 0.684. It also gave a relative viability ([16]; first compound 0.253 µM) of 0.683, a relative viability ([16]; first compound 0.8 µM) of 0.81 and a relative viability ([16]; first compound 2.53 µM) of 0.551. For the same molecule, the relative viability ([17]; first compound 0.08 µM) was 1.01, the relative viability ([17]; first compound 0.253 µM) was 0.863 and the relative viability ([17]; first compound 0.8 µM) was 0.96. The relative viability ([17]; first compound 2.53 µM) was 0.801, the relative viability ([18]; first compound 0.08 µM) was 1.02 and the relative viability ([18]; first compound 0.253 µM) was 0.986. The relative viability ([18]; first compound 0.8 µM) was 0.951, the relative viability ([18]; first compound 2.53 µM) was 0.557 and the relative viability ([19]; first compound 0.08 µM) was 0.988. For the same molecule, the relative viability ([19]; first compound 0.253 µM) was 0.651, the relative viability ([19]; first compound 0.8 µM) was 0.959 and the relative viability ([19]; first compound 2.53 µM) was 0.778. For the same molecule, the relative viability ([20]; first compound 0.08 µM) was 0.916, the relative viability ([20]; first compound 0.253 µM) was 0.863 and the relative viability ([20]; first compound 0.8 µM) was 1. For the same molecule, the relative viability ([20]; first compound 2.53 µM) was 0.874, the relative viability ([21]; first compound 0.08 µM) was 0.881 and the relative viability ([21]; first compound 0.253 µM) was 0.765. The relative viability ([21]; first compound 0.8 µM) was 0.789, the relative viability ([21]; first compound 2.53 µM) was 0.661 and the relative viability ([22]; first compound 0.08 µM) was 1.25. For the same molecule, the relative viability ([22]; first compound 0.8 µM) was 0.952 and the relative viability ([22]; first compound 2.53 µM) was 0.854.
